From ChEMBL document CHEMBL1147150, “Design and synthesis of a potent histone deacetylase inhibitor” (J Med Chem, 2007)
Square brackets hold non-standard residues; d marks the D form. Peptide text beside a SMILES is read from it. * marks the point of attachment. Asu = N[C@@H](CCCCCC(=O)O)C(=O)O; NHOH = ON*

Columns and labels:
[1] = molecular target: Histone deacetylase; assay: Inhibition of Histone deacetylase in HeLa cell nuclear extracts by fluorescence-based assay; design: species or system Homo sapiens
[2] = molecular target: Histone deacetylase 1 (Homo sapiens, UniProt Q13547); assay: Inhibition of human HDAC1
[3] = molecular target: T1, Histone deacetylase 8 (Homo sapiens, UniProt Q9BY41); assay: Inhibition of human HDAC8
T1 sequence (Q9BY41 whole entry): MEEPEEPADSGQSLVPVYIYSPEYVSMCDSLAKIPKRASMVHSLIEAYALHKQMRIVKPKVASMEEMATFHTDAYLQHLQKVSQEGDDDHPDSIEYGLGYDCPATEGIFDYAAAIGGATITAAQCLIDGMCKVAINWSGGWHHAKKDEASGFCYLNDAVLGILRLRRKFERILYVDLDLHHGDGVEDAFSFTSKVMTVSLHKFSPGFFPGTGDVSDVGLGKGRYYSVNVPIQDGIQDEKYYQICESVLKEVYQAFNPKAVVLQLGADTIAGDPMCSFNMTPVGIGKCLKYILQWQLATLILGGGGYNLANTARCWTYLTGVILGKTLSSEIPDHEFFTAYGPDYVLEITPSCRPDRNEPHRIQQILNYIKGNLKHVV

Histone deacetylase 1, sequence (Q13547 whole entry): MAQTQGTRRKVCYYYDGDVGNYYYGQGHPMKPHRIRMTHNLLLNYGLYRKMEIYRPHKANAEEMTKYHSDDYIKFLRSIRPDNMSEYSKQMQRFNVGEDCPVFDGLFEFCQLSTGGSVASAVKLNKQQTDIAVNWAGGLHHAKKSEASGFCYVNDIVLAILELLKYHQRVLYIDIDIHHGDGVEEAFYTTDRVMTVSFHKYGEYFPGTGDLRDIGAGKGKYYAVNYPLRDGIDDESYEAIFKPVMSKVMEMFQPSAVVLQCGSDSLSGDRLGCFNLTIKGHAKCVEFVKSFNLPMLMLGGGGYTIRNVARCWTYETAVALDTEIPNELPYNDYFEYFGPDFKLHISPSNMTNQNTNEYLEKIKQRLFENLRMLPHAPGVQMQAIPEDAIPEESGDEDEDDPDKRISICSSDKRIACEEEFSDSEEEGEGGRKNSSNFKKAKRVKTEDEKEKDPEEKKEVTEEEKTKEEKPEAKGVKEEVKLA

IC50 [1] [nM] | IC50 [2] [nM] | Compound | Ki [1] [nM] | Ki [2] [nM] | IC50 [3] [nM] | Ki [3] [nM]
167 | 174 | COC(=O)[C@H](Cc1ccccc1)NC(=O)[C@H](CCCCCC(=O)NO)NC(=O)[C@H](C)NC(C)=O (Ac-Ala-[Asu](NHOH)-Phe-OMe) |  |  |  | 
8100 | 40000 | COC(=O)C(Cc1cccc(C[C@H](NC(C)=O)C(=O)O)c1)NC(=O)[C@@H](N)CCCCCC(=O)NO (stereo not given in full) |  |  |  | 

Compound | IC50 [1] [nM] | IC50 [2] [nM] | Ki [1] [nM] | Ki [2] [nM] | IC50 [3] [nM] | Ki [3] [nM]
COC(=O)[C@@H]1Cc2cccc(c2)C[C@H](NC(C)=O)C(=O)N[C@@H](CCCCCC(=O)NO)C(=O)N1 | 46 | 57 | 13.67 | 4.15 | 231 | 5.32
